Measured values: BindingDB's records for doi:10.1021/jm970446z (National Institute of Diabetes, 1998)

molecular target: Adenosine receptor A2a (Rattus norvegicus, UniProt P30543); experiment: Ability to displace [3H]-CGS- 21680 binding from adenosine A2A receptor.
Sequence (P30543 whole entry): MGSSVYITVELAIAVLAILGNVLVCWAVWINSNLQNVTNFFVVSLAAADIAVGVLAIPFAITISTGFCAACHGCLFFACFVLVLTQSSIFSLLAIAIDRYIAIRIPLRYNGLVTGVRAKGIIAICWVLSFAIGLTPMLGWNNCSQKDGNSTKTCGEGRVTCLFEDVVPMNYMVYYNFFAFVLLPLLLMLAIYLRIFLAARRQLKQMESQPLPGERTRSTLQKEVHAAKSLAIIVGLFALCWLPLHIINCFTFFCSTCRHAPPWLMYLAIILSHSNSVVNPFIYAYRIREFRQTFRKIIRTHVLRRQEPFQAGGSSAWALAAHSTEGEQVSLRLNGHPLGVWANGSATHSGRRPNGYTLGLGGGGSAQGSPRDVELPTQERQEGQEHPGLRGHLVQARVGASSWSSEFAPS

| Structure (SMILES) | Ki |
| --- | --- |
| CC(=O)Oc1cc(OC(C)=O)c2c(c1)OC(c1ccccc1)C(OC(C)=O)C2=O (stereo unspecified) | 56.2 µM |
| CCOc1ccc(-c2oc3cc(OCC)cc(OCC)c3c(=O)c2OCC)c(OCC)c1 [2-(2,4-Diethoxy-phenyl)-3,5,7-triethoxy-chromen-4-one] | 26.3 µM |
| COc1ccc(-c2cc(=O)c3ccc(O)cc3o2)cc1OC [2-(3,4-dimethoxyphenyl)-7-hydroxy-4H-chromen-4-one] | 34.7 µM |
| COc1c(O)cc2oc(-c3ccc(O)cc3)cc(=O)c2c1O [5,7-dihydroxy-2-(4-hydroxyphenyl)-6-methoxy-4H-chromen-4-one] | 7.59 µM |

The remaining lines, values ahead:

| Ki | Structure (SMILES) |
| --- | --- |
| 25.1 µM | O=c1c(Cl)c(-c2ccccc2)oc2ccccc12 [3-Chloro-2-phenyl-chromen-4-one] |
| 166 µM | CCOc1c2ccoc2cc2oc(/C=C/C=C/c3ccccc3)cc(=O)c12 [4-Ethoxy-7-((1E,3E)-4-phenyl-buta-1,3-dienyl)-furo[3,2-g]chromen-5-one] |
| 55 µM | O=c1c(Cl)c(-c2ccccc2)oc2ccc(Cl)cc12 [NSC-74876] |

molecular target: T1, Adenosine receptor A3 (Homo sapiens, UniProt P0DMS8); experiment: Ability to displace [125I]-AB-MECA binding from adenosine A3 receptor.
T1 sequence (P0DMS8 whole entry): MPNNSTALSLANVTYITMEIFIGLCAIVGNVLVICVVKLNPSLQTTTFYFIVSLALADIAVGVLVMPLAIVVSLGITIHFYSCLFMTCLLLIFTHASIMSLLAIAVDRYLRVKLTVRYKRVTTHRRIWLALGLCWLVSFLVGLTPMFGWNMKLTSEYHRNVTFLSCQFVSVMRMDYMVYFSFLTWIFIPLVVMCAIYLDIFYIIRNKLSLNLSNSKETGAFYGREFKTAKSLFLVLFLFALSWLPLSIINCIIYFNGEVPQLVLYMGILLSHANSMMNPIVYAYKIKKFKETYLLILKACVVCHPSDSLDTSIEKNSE

| Structure (SMILES) | Ki |
| --- | --- |
| COc1ccc2c(c1)C(=O)C(O)C(C#Cc1ccccc1)O2 (stereo unspecified) | 8.13 µM |
| COC1(OC)Cc2oc(-c3ccc(O)cc3O)c(CC=C(C)C)c(=O)c2C(O)=C1/C=C/C(C)C | 4.57 µM |
| CCOc1c(-c2c(C)cc(C)cc2C)oc2ccc(Cl)cc2c1=O | 0.191 µM |
| O=C1C[C@@H](c2ccc(O)cc2)Oc2ccccc21 [2-(4-hydroxyphenyl)-2,3-dihydro-4H-chromen-4-one] | 22.9 µM |
| O=C1CC(c2ccccc2)Oc2ccccc21 (stereo unspecified) [2-phenyl-2,3-dihydro-4H-chromen-4-one] | 16.2 µM |

Now from value to compound:

| Ki | Structure (SMILES) |
| --- | --- |
| 6.61 µM | COc1cc(OC)c2c(=O)c(OC)c(-c3cc(OC)c(OC)c(OC)c3)oc2c1 [3,5,7-Trimethoxy-2-(3,4,5-trimethoxy-phenyl)-chromen-4-one] |
| 0.831 µM | COc1cc(OC)c2c(=O)c(OC)c(-c3ccccc3)oc2c1 [3,5,7-Trimethoxy-2-phenyl-chromen-4-one] |
| 50.1 µM | COc1ccc(-c2cc(=O)c3c(O)cc(C)cc3o2)cc1 [5-Hydroxy-2-(4-methoxy-phenyl)-7-methyl-chromen-4-one] |
| 3.39 µM | COc1cc(O)c2c(c1)O[C@H](c1ccc(O)cc1)CC2=O [5-hydroxy-2-(4-hydroxyphenyl)-7-methoxychroman-4-one] |
| 0.562 µM | Cc1ccc(-c2oc3ccc(Cl)cc3c(=O)c2Cl)c(C(C)C)c1 [NSC-74899] |
| 3.16 µM | COc1cc2oc(-c3ccc(O)cc3)cc(=O)c2c(O)c1OC [cirsimartin] |
| 0.589 µM | O=c1c(O)c(-c2ccccc2)oc2cc(O)cc(O)c12 [norizalpinin] |

molecular target: T2, Adenosine receptor A1 (Rattus norvegicus, UniProt P25099); experiment: Ability to displace [3H]N6-phenylisopropyladenosine binding from adenosine A1 receptor.
T2 sequence (P25099 whole entry): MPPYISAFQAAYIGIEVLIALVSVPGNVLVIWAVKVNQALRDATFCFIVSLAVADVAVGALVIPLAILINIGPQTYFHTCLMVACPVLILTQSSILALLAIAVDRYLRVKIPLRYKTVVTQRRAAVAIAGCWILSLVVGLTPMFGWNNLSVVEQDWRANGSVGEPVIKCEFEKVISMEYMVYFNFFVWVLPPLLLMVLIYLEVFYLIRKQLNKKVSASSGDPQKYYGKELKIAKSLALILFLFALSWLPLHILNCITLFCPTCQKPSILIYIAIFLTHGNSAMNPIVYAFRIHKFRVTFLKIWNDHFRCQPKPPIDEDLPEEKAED

| Ki | Structure (SMILES) |
| --- | --- |
| 50.1 µM | COc1ccc2c(c1)C(=O)C(O)C(C#Cc1ccccc1)O2 (stereo unspecified) |
| 8.13 µM | COc1cc(O)c2c(c1)O[C@H](c1ccc(O)cc1)CC2=O [5-hydroxy-2-(4-hydroxyphenyl)-7-methoxychroman-4-one] |
